Assay results as given in patent US20260091020A1, “TREATMENT OF ACUTE CANNABINOID OVERDOSE” (Anebulo Pharmaceuticals, Inc., priority 2022, published 2026).

Key:
Assay type in all cases: cell-based
CB2 [CNR2] [1] = target: T1, CB2 [CNR2] (Homo sapiens, UniProt P34972); experiment: PathHunter GPCR Biosensor cAMP assay, CNR2 antagonist mode; details: Gi cAMP, 25 μM Forskolin; EC80 0.0048 μM CP55940
Description: (§1) Compounds 2 and 3 were evaluated for activity against CB1 [CNR1] and CB2 [CNR2], both as agonists or as antagonists using the PathHunter GPCR Biosensor (Eurofins Discovery X, Fremont CA). For agonist assays, data was normalized to the maximal and minimal response observed in the presence of control ligand and vehicle. For antagonist assays, data was normalized to the maximal and minimal response observed in the presence of EC80 ligand and vehicle. The following EC80 concentrations were used: CNR1 cAMP: 0.0012 μM CP55940; CNR2 cAMP: 0.0048 μM CP55940. For Gi cAMP assays, the following forskolin concentration was used: CNR1 cAMP: 20 μM Forskolin; CNR2 cAMP: 25 μM Forskolin.

CB1 [CNR1] [2] = target: T2, CB1 [CNR1] (Homo sapiens, UniProt P21554); experiment: PathHunter GPCR Biosensor cAMP assay, CNR1 antagonist mode; details: for IC50: Gi cAMP, 20 μM Forskolin, EC80 0.0012 μM CP55940; for CB1 vs CB2 selectivity and mode of action (in words): conclusion from Table 7
T2 sequence (P21554 whole entry): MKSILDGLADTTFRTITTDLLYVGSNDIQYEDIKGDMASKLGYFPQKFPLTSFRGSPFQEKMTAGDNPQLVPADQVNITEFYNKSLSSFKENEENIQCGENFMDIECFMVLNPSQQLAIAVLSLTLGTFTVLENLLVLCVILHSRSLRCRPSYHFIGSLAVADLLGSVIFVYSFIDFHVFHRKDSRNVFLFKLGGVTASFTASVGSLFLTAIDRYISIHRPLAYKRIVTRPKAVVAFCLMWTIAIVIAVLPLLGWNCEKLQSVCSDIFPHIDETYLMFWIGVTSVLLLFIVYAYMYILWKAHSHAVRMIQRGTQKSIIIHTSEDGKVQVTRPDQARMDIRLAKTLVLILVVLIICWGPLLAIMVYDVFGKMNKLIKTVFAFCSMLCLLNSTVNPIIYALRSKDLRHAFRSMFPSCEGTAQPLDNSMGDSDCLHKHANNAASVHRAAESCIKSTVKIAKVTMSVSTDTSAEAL
Description: as §1

CB2 [CNR2] [3] = target: T1, CB2 [CNR2]; experiment: PathHunter GPCR Biosensor cAMP assay, CNR2 agonist mode; details: Gi cAMP, 25 μM Forskolin
Description: as §1

CB1 [CNR1] [4] = target: T2, CB1 [CNR1]; experiment: PathHunter GPCR Biosensor cAMP assay, CNR1 agonist mode; details: Gi cAMP, 20 μM Forskolin
Description: as §1

T1 sequence (P34972 whole entry): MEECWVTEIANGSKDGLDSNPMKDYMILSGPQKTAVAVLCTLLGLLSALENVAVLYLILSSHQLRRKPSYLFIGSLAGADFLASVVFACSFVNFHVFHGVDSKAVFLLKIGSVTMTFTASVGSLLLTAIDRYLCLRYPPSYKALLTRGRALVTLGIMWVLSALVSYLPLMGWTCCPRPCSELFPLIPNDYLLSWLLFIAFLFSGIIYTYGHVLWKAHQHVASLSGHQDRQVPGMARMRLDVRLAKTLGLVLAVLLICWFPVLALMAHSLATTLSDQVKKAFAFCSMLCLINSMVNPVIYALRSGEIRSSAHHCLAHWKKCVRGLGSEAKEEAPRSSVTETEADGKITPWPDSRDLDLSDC

| SMILES | IC50 (CB2 [CNR2] [1]) | IC50 (CB1 [CNR1] [2]) | CB1 vs CB2 selectivity and mode of action (in words) (CB1 [CNR1] [2]) | EC50 (CB2 [CNR2] [3]) | EC50 (CB1 [CNR1] [4]) |
| --- | --- | --- | --- | --- | --- |
| CC(C)(CO)NC(=O)N1CC(OC(c2ccc(Cl)cc2)c2ccccc2C(F)(F)F)C1 (stereo not shown) [Compound 2, 3-((4-chlorophenyl)(2-(trifluoromethyl)phenyl)methoxy)-N-(1-hydroxy-2-methylpropan-2-yl)azetidine-1-carboxamide] | > 1000 nM | 45.6 nM | selective CB1 antagonists | > 1000 nM | > 1000 nM |
| CC(C)(NC(=O)N1CC(OC(c2ccc(Cl)cc2)c2ccccc2C(F)(F)F)C1)C(=O)O (stereo not shown) [Compound 3, 2-(3-((4-chlorophenyl)(2-(trifluoromethyl)phenyl)methoxy)azetidine-1-carboxamido)-2-methylpropanoic acid] | > 1000 nM | 383 nM | selective CB1 antagonists | > 1000 nM | > 1000 nM |
